In article PMC6006285, “Specific stereochemistry of OP-1074 disrupts estrogen receptor alpha helix 12 and confers pure antiestrogenic activity” (Nature Communications, 2018):
Values joined by “and” are separate entries in the source; they are usually repeats but may differ in a detail not shown here. Identical values can stand only once.

Tests used:
[1] = tested on: MCF7/HER2/neu tumors
Method: MCF7/HER2/neu cells were grown in culture and implanted into 6–7 week athymic ovariectomized female nu/nu mice (Taconic Biosciences). To stimulate tumor growth, 0.18 mg estradiol 90 day release pellets (Innovative Research) were implanted along with cells. […] Tumor volume and bodyweight were measured twice weekly. At end of the study animals were euthanized, tumors resected and snap frozen in liquid nitrogen, and uteri were resected, weighed, and fixed in 10% formalin.

[2] = biological target: T1, ERα (Homo sapiens, UniProt P03372); assay: ERα protein levels by immunoblotting; type: cell-based; details: MCF-7 cells, 100 nM ligand, 24 h, means of n experiments ±s.d.
T1 construct: endogenous in cells
T1 sequence (P03372 1-595): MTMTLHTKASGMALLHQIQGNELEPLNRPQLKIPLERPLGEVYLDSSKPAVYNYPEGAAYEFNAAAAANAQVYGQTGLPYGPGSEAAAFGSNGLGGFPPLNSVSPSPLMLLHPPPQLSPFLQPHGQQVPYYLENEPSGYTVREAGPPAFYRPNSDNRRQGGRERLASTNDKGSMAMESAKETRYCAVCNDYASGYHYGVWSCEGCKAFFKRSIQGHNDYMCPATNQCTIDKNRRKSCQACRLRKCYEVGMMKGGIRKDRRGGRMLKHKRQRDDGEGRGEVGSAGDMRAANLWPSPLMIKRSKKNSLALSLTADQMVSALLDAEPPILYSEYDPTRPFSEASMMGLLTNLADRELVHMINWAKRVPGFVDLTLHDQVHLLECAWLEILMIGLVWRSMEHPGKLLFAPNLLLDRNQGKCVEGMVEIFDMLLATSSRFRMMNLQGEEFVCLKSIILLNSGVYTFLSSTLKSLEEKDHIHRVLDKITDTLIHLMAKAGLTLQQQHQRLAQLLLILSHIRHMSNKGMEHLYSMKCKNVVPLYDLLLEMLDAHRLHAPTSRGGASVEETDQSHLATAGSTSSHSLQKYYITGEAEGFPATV
Method: However, it is conceivable that under some clinical contexts SERD activity may still be a desirable feature by reducing the number of functional receptors in tumors.
Imaging was performed on FluorChem Imager by Alpha Innotech. […] An uncropped image of the immunoblot is shown in Supplementary Fig. 5.

[3] = biological target: T2, Estrogen Receptor α LBD (ERα) (Homo sapiens, UniProt P03372); assay: Competitive ligand binding assay with [3H]-E2; details: 10 nM [3H]-E2 tracer, 2 nM biotinylated ERα LBD; representative experiment
T2 construct: 2 nM biotinylated Estrogen Receptor α LBD (ERα) was incubated; biotin (biotinylated)
T2 sequence (P03372 311-547 limits assumed): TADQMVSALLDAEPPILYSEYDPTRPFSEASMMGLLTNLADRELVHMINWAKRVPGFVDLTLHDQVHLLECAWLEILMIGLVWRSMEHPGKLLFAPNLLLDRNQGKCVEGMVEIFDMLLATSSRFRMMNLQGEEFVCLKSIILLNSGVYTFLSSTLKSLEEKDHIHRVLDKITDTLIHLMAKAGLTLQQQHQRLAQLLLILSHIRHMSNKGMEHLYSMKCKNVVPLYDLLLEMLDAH
Method: Experimental data points are mean + /− s.e.m. of triplicate samples in a representative experiment. […] Experimental data points are mean + /− s.d. of triplicate samples in a representative experiment
Triplicate reactions were vortexed and 100 μL was added in triplicate to a 96-well streptavidin flashplate (Perkin Elmer #SMP103001PK), which incubated overnight at 4 °C prior to reading.

[4] = tested on: CAMA-1 cells; assay: Inhibition of E2-stimulated proliferation of CAMA-1 cells; type: cell-based; details: Homo sapiens, CAMA-1, 192 h; read-out: CAMA-1 IC50 proliferation (Fig. 3c)
Method: Shown is a representative figure analyzed and presented as above. d, Western blot of destabilization of ERα protein by OP-1074.
Proliferation was measured using CyQuant fluorescent DNA-binding dye kit (ThermoFisher Scientific, #C7026) using 1:200 GR dye and reading fluorescence at 485 nm excitation and 538 nm emission on the Varioskan Lux multimodal plate reader.

[5] = number of 10 tumors at end of study, OP-1074 100 mg/kg oral twice daily, fulvestrant 100 mg/kg subcutaneous daily

With `CC1=C(c2ccc(O)cc2)[C@H](c2ccc(OCCN3CC[C@@H](C)C3)cc2)Oc2cc(O)ccc21` [OP-1074] the Tolerability ([1]; nude mice, 100 mg/kg dosed twice a day by oral gavage) was “well-tolerated with no adverse effects on behavior or mouse bodyweight”, the “Tumors shrunk / growth inhibited by >50%” value [1, 5] was “all ten” and the “Tumors shrunk >80%” value [1, 5] was 9/10. For the same molecule, the “Relative ERα protein levels (% vehicle)” value [2] was 49 % vehicle and 49% ± 13 (n = 15) % vehicle, the IC50 [3] was 7 nM and 7.03 nM and the IC50 [4] was 5.7 nM.
